Assay results taken from patent US4962108A, “Antibacterial quinoline compounds” (Warner-Lambert Company, priority 1988, dated 1990).
≈ marks a conversion by molar mass, not a printed value. Like-named read-outs stand apart in the source and are kept apart here.

Key:
Assay in all cases: in vitro antibacterial activity, microtitration dilution method
Format in all cases: cell-based
Escherichia coli Vogel = settings: read-out: minimal inhibitory concentration (MIC)
From the text: (§1) The compounds of the invention display antibacterial activity when tested by the microtitration dilution method as described in Heifetz, et al, Antimicr. Agents & Chemoth., 6, 124 (1974), which is incorporated herein by reference.
(§2) By use of the above reference method, the following minimum inhibitory concentration value (MICs in μg/ml) shown in Table I were obtained for representative compounds of the invention.

[1] = test system: Enterobacter cloacae MA 2646
From the text: as §1, §2

Proteus rettgeri M 1771 = settings: Providencia rettgeri, M1771, read-out: minimal inhibitory concentration (MIC)
From the text: as §1, §2

[2] = test system: Staphylococcus aureus UC-76
From the text: (§3) Agents & Chemoth., 6, 124 (1974), which is incorporated herein by reference.

[3] = test system: Staphylococcus aureus H 228
From the text: as §3

[4] = test system: Streptococcus pyogenes C-203
From the text: as §3

[5] = test system: Streptococcus pneumoniae SV-1
From the text: as §3

[6] = test system: Streptococcus faecalis MGH-2; settings: Enterococcus faecalis
From the text: as §3

[7] = test system: Pseudomonas aeruginosa UI-18
From the text: as §3

[8] = test system: Klebsiella pneumoniae MGH-2
From the text: as §3

[9] = MA2646, in vitro, Enterobacter cloacae MA 2646, read-out: minimal inhibitory concentration (MIC)
[10] = UC76, in vitro, Staphylococcus aureus UC-76, read-out: minimal inhibitory concentration (MIC)
[11] = Staphylococcus aureus, H228, read-out: minimal inhibitory concentration (MIC)
[12] = C203, in vitro, Streptococcus pyogenes C-203, read-out: minimal inhibitory concentration (MIC)
[13] = SV1, in vitro, Streptococcus pneumoniae SV-1, read-out: minimal inhibitory concentration (MIC)
[14] = MGH2, read-out: minimal inhibitory concentration (MIC)
[15] = UI18, in vitro, Pseudomonas aeruginosa UI-18, read-out: minimal inhibitory concentration (MIC)
[16] = MGH2, in vitro, Klebsiella pneumoniae MGH-2, read-out: minimal inhibitory concentration (MIC)
[17] = H228, in vitro, Staphylococcus aureus H 228, read-out: minimal inhibitory concentration (MIC)
[18] = MGH2, in vitro, Streptococcus faecalis MGH-2, read-out: minimal inhibitory concentration (MIC)
[19] = Enterobacter cloacae, MA2646, read-out: minimal inhibitory concentration (MIC)
[20] = Pseudomonas aeruginosa, UI18, read-out: minimal inhibitory concentration (MIC)
[21] = Klebsiella pneumoniae, MGH2, read-out: minimal inhibitory concentration (MIC)
[22] = Staphylococcus aureus, UC76, read-out: minimal inhibitory concentration (MIC)

SMILES | MIC (Escherichia coli Vogel) [µg/mL] | MIC [1, 9] [µg/mL] | MIC (Proteus rettgeri M 1771) [µg/mL] | MIC [2, 10] [µg/mL] | MIC [3, 11] [µg/mL] | MIC [4, 12] [µg/mL] | MIC [5, 13] [µg/mL] | MIC [6, 14] [µg/mL] | MIC [7, 15] [µg/mL] | MIC [8, 16] [µg/mL] | MIC [3, 17] [µg/mL] | MIC ([4]; Streptococcus pyogenes, C203, read-out: minimal inhibitory concentration (MIC)) [µg/mL] | MIC [6, 18] [µg/mL] | MIC [1, 19] [µg/mL] | MIC [7, 20] [µg/mL] | MIC [8, 21] [µg/mL] | MIC [2, 22] [µg/mL] | MIC ([5]; Streptococcus pneumoniae, SV1, read-out: minimal inhibitory concentration (MIC)) [µg/mL]
CCn1cc(C(=O)O)c(=O)c2cc(F)c(N3CC4CCCC3CN4)c(F)c21 (stereo not drawn) [Example 1, 7-(6,8-Diazabicyclo[3.2.2]non-6-yl)-1-ethyl-6,8-difluoro-1,4-dihydro-4-oxo-3-quinolinecarboxylic acid] | 0.4 (≈ 1.06 µM) | 0.4 (≈ 1.06 µM) | 0.8 (≈ 2.12 µM) | 0.05 (≈ 0.132 µM) | 0.2 (≈ 0.53 µM) | 1.6 (≈ 4.24 µM) | 0.8 (≈ 2.12 µM) | 0.8 (≈ 2.12 µM) | 3.1 (≈ 8.21 µM) | 0.8 (≈ 2.12 µM) |  |  |  |  |  |  |  | 
O=C(O)c1cn(C2CC2)c2c(F)c(N3CC4CCCC3CN4)c(F)cc2c1=O (stereo not drawn) [Example 2, 1-Cyclopropyl-7-(6,8-diazabicyclo[3.2.2]non-6-yl)-6,8-difluoro-1,4-dihydro-4-oxo-3-quinolinecarboxylic acid] | 0.4 (≈ 1.03 µM) | 0.1 (≈ 0.257 µM) | 0.4 (≈ 1.03 µM) | 0.05 (≈ 0.128 µM) |  |  | 0.2 (≈ 0.514 µM) |  | 0.8 (≈ 2.05 µM) | 0.2 (≈ 0.514 µM) | 0.05 (≈ 0.128 µM) | 0.8 (≈ 2.05 µM) | 0.2 (≈ 0.514 µM) |  |  |  |  | 
O=C(O)c1cn(C2CC2)c2nc(N3CC4CCCC3CN4)c(F)cc2c1=O (stereo not drawn) [Example 3, 1-cyclopropyl-7-(6,8-diazabicyclo[3.2.2]non-6-yl)-6-fluoro-1,4-dihydro-4-oxo-1,8-naphthyridine-3-carboxylic acid] | 0.03 (≈ 0.0806 µM) |  | 0.4 (≈ 1.07 µM) | 0.1 (≈ 0.269 µM) | 0.2 (≈ 0.537 µM) | 0.1 (≈ 0.269 µM) | 0.05 (≈ 0.134 µM) |  |  |  |  |  | 0.2 (≈ 0.537 µM) | 0.05 (≈ 0.134 µM) | 0.4 (≈ 1.07 µM) | 0.1 (≈ 0.269 µM) |  | 
CCn1cc(C(=O)O)c(=O)c2cc(F)c(N3CC4CCCC3CN4C)c(F)c21 (stereo not drawn) [Example 4, 1-Ethyl-6,8-difluoro-1,4-dihydro-7-(8-methyl-6,8-diazabicyclo[3.2.2]non-6-yl)-4-oxo-3-quinolinecarboxylic acid] | 0.8 (≈ 2.04 µM) | 1.6 (≈ 4.09 µM) | 6.3 (≈ 16.1 µM) | 0.1 (≈ 0.255 µM) | 0.2 (≈ 0.511 µM) | 1.6 (≈ 4.09 µM) | 0.8 (≈ 2.04 µM) | 0.8 (≈ 2.04 µM) | 12.5 (≈ 31.9 µM) | 1.6 (≈ 4.09 µM) |  |  |  |  |  |  |  | 
CCN[C@@H]1C[C@H]2CC[C@@H](C1)N2c1nc2c(cc1F)c(=O)c(C(=O)O)cn2C1CC1 [Example 5a, 1-cyclopropyl-7-[3-exo(ethylamino)-8-azabicyclo[3.2.1]oct-8-yl]-6-fluoro-1,4-dihydro-4-oxo-1,8-naphthyridine-3-carboxylic acid] | 0.2 (≈ 0.499 µM) | 0.8 (≈ 2 µM) | 3.1 (≈ 7.74 µM) |  | 0.2 (≈ 0.499 µM) | 0.4 (≈ 0.999 µM) | 0.2 (≈ 0.499 µM) |  | 1.6 (≈ 4 µM) | 0.4 (≈ 0.999 µM) |  |  | 0.4 (≈ 0.999 µM) |  |  |  | 0.2 (≈ 0.499 µM) | 
CCN[C@H]1C[C@H]2CC[C@@H](C1)N2c1nc2c(cc1F)c(=O)c(C(=O)O)cn2C1CC1 [Example 5b, 1-Cyclopropyl-7-[3-endo(ethylamino)-8-azabicyclo[3.2.1]oct-8-yl]-6-fluoro-1,4-dihydro-4-oxo-1,8-naphthyridine-3-carboxylic acid] | 0.4 (≈ 0.999 µM) | 0.8 (≈ 2 µM) | 3.1 (≈ 7.74 µM) | 0.4 (≈ 0.999 µM) |  | 0.4 (≈ 0.999 µM) | 0.4 (≈ 0.999 µM) | 0.8 (≈ 2 µM) | 3.1 (≈ 7.74 µM) | 0.8 (≈ 2 µM) | 0.8 (≈ 2 µM) |  |  |  |  |  |  | 
CCN[C@H]1C[C@H]2CC[C@@H](C1)N2c1c(F)cc2c(=O)c(C(=O)O)cn(C3CC3)c2c1F [Example 5c, 1-cyclopropyl-7-[3-endo(ethylamino)-8-azabicyclo[3.2.1]oct-8-yl]-6,8-difluoro-1,4-dihydro-4-oxo-3-quinolinecarboxylic acid] | 0.4 (≈ 0.958 µM) | 0.4 (≈ 0.958 µM) | 3.1 (≈ 7.43 µM) |  |  | 0.4 (≈ 0.958 µM) | 0.4 (≈ 0.958 µM) | 0.8 (≈ 1.92 µM) | 3.1 (≈ 7.43 µM) | 0.8 (≈ 1.92 µM) | 0.8 (≈ 1.92 µM) |  |  |  |  |  | 0.2 (≈ 0.479 µM) | 
CCN[C@@H]1C[C@H]2CC[C@@H](C1)N2c1c(F)cc2c(=O)c(C(=O)O)cn(C3CC3)c2c1F [Example 5d, 1-cyclopropyl-7-[3-exo(ethylamino)-8-azabicyclo[3.2.1]oct-8-yl]-6,8-difluoro-1,4-dihydro-4-oxo-3-quinolinecarboxylic acid] | 0.2 (≈ 0.479 µM) | 0.2 (≈ 0.479 µM) | 1.6 (≈ 3.83 µM) | 0.1 (≈ 0.24 µM) | 0.2 (≈ 0.479 µM) | 0.1 (≈ 0.24 µM) | 0.1 (≈ 0.24 µM) |  | 3.1 (≈ 7.43 µM) | 0.4 (≈ 0.958 µM) |  |  | 0.2 (≈ 0.479 µM) |  |  |  |  | 
CCN[C@@H]1C[C@H]2CC[C@@H](C1)N2c1cc2c(cc1F)c(=O)c(C(=O)O)cn2C1CC1 [Example 5e, 1-cyclopropyl-7-[3-exo(ethylamino)-8-azabicyclo[3.2.1]oct-8-yl]-6-fluoro-1,4-dihydro-4-oxo-3-quinolinecarboxylic acid] | 0.4 (≈ 1 µM) | 0.8 (≈ 2 µM) | 3.1 (≈ 7.76 µM) |  |  | 0.4 (≈ 1 µM) | 0.2 (≈ 0.501 µM) |  | 3.1 (≈ 7.76 µM) | 0.8 (≈ 2 µM) | 0.4 (≈ 1 µM) |  | 0.4 (≈ 1 µM) |  |  |  | 0.2 (≈ 0.501 µM) | 
CCN[C@H]1C[C@H]2CC[C@@H](C1)N2c1cc2c(cc1F)c(=O)c(C(=O)O)cn2C1CC1 [Example 5f, 1-cyclopropyl-7-[3-endo(ethylamino)-8-azabicyclo[3.2.1]oct-8-yl]-6-fluoro-1,4-dihydro-4-oxo-3-quinolinecarboxylic acid] | 1.6 (≈ 4.01 µM) | 1.6 (≈ 4.01 µM) | 12.5 (≈ 31.3 µM) | 0.8 (≈ 2 µM) |  | 1.6 (≈ 4.01 µM) |  |  | 6.3 (≈ 15.8 µM) | 3.1 (≈ 7.76 µM) | 3.1 (≈ 7.76 µM) |  | 3.1 (≈ 7.76 µM) |  |  |  |  | 1.6 (≈ 4.01 µM)
O=C(O)c1cn(C2CC2)c2cc(N3CC4CCCC3CN4)c(F)cc2c1=O (stereo not drawn) [Example 7, 1-Cyclopropyl-7-(6,8-diazabicyclo[3.2.2]non-6-yl)-6-fluoro-1,4-dihydro-4-oxo-3-quinolinecarboxylic acid] | 0.05 (≈ 0.135 µM) |  | 0.4 (≈ 1.08 µM) | 0.025 (≈ 0.0673 µM) |  | 0.05 (≈ 0.135 µM) | 0.05 (≈ 0.135 µM) |  |  |  | 0.1 (≈ 0.269 µM) |  | 0.1 (≈ 0.269 µM) | 0.05 (≈ 0.135 µM) | 0.4 (≈ 1.08 µM) | 0.1 (≈ 0.269 µM) |  | 
O=C(O)c1cn(C2CC2)c2c(Cl)c(N3CC4CCCC3CN4)c(F)cc2c1=O (stereo not drawn) [Example 8, 8-Chloro-1-cyclopropyl-7-(6,8-diazabicyclo[3.2.2]non-6-yl)-6-fluoro-1,4-dihydro-4-oxo-3-quinolinecarboxylic acid] | 0.2 (≈ 0.493 µM) | 0.2 (≈ 0.493 µM) | 0.4 (≈ 0.986 µM) | 0.05 (≈ 0.123 µM) | 0.2 (≈ 0.493 µM) | 0.1 (≈ 0.246 µM) | 0.1 (≈ 0.246 µM) |  | 0.8 (≈ 1.97 µM) | 0.2 (≈ 0.493 µM) |  |  | 0.2 (≈ 0.493 µM) |  |  |  |  | 
